# Results as given in patent US8124627B2, “Biphenyl compounds useful as muscarinic receptor antagonists” (Theravance, Inc., priority 2005, dated 2012).
# Counter-ions that a name gives are not always drawn.
# What was measured:
# [1] = molecular target: T1, M3 muscarinic receptor subtype (Homo sapiens, UniProt P20309); assay: Radioligand binding assay ([3H]-NMS displacement, CHO cell membranes); details: tested in this or a similar assay
# T1 construct: expressed in transfected cells; crude membranes prepared in house
# Protocol: CHO cell lines stably expressing cloned human hM1, hM2, hM3 and hM4 muscarinic receptor subtypes, respectively, were grown to near confluency in medium consisting of HAM's F-12 supplemented with 10% FBS and […]. The cells were grown in a 5% CO2, 37° C. incubator and lifted with 2 mM EDTA in dPBS. Cells were collected by 5 minute centrifugation at 650×g, and cell pellets were either stored frozen at −80° C. or membranes were prepared immediately. For membrane preparation, cell pellets were resuspended in lysis buffer and homogenized with a Polytron PT-2100 tissue disrupter (Kinematica AG; 20 seconds×2 bursts). Crude membranes were centrifuged at 40,000×g for 15 minutes at 4° C. […] The protein concentration of the membrane suspension was determined by the method described in Lowry, O. et al., […] 193:265 (1951). […]
# Radioligand binding assays were performed in 96-well microtiter plates in a total assay volume of 100 μL. […] Filter plates were rinsed three times with wash buffer (10 mM HEPES) to remove unbound radioactivity. […] The plates were then counted in a PerkinElmer Topcount liquid scintillation counter (PerkinElmer Inc., Wellesley, Mass.). Binding data were analyzed by nonlinear regression analysis with the GraphPad Prism Software package (GraphPad Software, Inc., San Diego, Calif.) using the one-site competition model. […]
# [2] = Differential scanning calorimetry (DSC), thermal decomposition; assay type: physicochemical; details: heating ramp 10° C./min
# Protocol: DSC was performed using a TA Instruments Model Q-10 module with a Thermal Analyst controller, and data were collected and analyzed using TA Instruments Thermal Solutions software. A sample of about 1 mg of the crystalline diacetate salt was accurately weighed into an aluminum pan with lid, and evaluated using a linear heating ramp of 10° C./min from ambient temperature to approximately 300° C. The DSC cell was purged with dry nitrogen during use. A representative DSC trace for this salt is shown in FIG. 2 and depicts one transition at about 114° C., no thermal decomposition below about 160° C., and maximum endothermic heat flow at about 112° C.
# [3] = Dynamic moisture sorption (DMS) assessment; assay type: physicochemical; details: exposed to up to 90% RH
# Protocol: A dynamic moisture sorption (DMS) assessment (also known as a moisture sorption-desorption profile) was performed for samples of the crystalline diacetate salt using a VTI atmospheric microbalance, SGA-100 system (VTI Corp., Hialeah, Fla. 33016). A sample size of approximately 10 mg was used and the humidity was set at the ambient value at the start of the analysis. A typical DMS analysis consisted of three scans: ambient to 2% relative humidity (RH), 2% RH to 90% RH, 90% RH to 5% RH at a scan rate of 5% RH/step. The mass was measured every two minutes and the RH was changed to the next value (+/−5% RH) when the mass of the sample was stable to within 0.01% for 5 consecutive points.
# T1 sequence (P20309 whole entry): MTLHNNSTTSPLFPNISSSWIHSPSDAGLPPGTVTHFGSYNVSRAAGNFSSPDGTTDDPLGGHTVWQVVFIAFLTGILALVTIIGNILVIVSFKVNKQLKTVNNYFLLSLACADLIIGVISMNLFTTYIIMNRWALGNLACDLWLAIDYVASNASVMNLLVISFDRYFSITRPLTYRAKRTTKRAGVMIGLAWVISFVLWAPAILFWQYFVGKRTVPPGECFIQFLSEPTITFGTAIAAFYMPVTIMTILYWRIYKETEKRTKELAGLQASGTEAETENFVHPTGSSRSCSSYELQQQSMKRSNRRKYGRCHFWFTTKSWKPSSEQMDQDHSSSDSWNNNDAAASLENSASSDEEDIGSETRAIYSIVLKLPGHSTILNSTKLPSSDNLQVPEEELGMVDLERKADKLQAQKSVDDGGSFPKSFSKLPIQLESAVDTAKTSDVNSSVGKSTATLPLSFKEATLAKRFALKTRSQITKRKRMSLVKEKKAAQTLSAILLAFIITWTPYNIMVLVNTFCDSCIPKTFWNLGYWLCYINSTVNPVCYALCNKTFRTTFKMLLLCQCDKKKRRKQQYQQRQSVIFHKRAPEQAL
Ki [1] [nM],no thermal decomposition below (DSC trace) [2] [°C],weight gain in DMS (reversible sorption/desorption profile) [3],Compound
< 5,–,–,"CN(CCN1CCC(OC(=O)Nc2ccccc2-c2ccccc2)CC1)C(=O)c1cccc(C(=O)NCCNCc2ccc(O)cc2)c1 [Example 1, Biphenyl-2-ylcarbamic Acid 1-[2-({3-[2-(4-Hydroxybenzylamino)ethylcarbamoyl]benzoyl}methylamino)ethyl]piperidin-4-yl Ester]"
–,≥ 160,less than 18%,"CN(CCN1CCC(OC(=O)Nc2ccccc2-c2ccccc2)CC1)C(=O)c1cccc(C(=O)NCCNCc2ccc(O)cc2)c1 [crystalline diacetate salt, biphenyl-2-ylcarbamic acid 1-[2-({3-[2-(4-hydroxybenzylamino)ethylcarbamoyl]benzoyl}methylamino)ethyl]piperidin-4-yl ester]"
–,≥ 150,less than 11%,"CN(CCN1CCC(OC(=O)Nc2ccccc2-c2ccccc2)CC1)C(=O)c1cccc(C(=O)NCCNCc2ccc(O)cc2)c1 [crystalline dipropionate salt, Biphenyl-2-ylcarbamic Acid 1-[2-({3-[2-(4-Hydroxybenzylamino)ethylcarbamoyl]benzoyl}methylamino)ethyl]piperidin-4-yl Ester]"
–,≥ 150,less than 14%,"CN(CCN1CCC(OC(=O)Nc2ccccc2-c2ccccc2)CC1)C(=O)c1cccc(C(=O)NCCNCc2ccc(O)cc2)c1 [crystalline monooxalate salt, Biphenyl-2-ylcarbamic Acid 1-[2-({3-[2-(4-Hydroxybenzylamino)ethylcarbamoyl]benzoyl}methylamino)ethyl]piperidin-4-yl Ester]"
